Test results from patent publication US10227347B2, “Purinyl-N-hydroxyl pyrimidine formamide derivative, preparation methods and uses thereof” (Guizhou Bailing Group Pharmaceutical CO., LTD., priority 2015, dated 2019).
Read-outs that look alike come from different tables or passages of the source.

Columns and labels:
PI3Kα = target: T1, PI3Kα (Homo sapiens, UniProt P42336); assay: PI3Kα activity inhibition (Kinase-Glo); format: biochemical
T1 construct: purchased Invitrogen PV4788
Summary of the method: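 Kinase-Glo luminescence read-out of remaining ATP after PI3K reaction with PIP2 and ATP substrates in 50 mM HEPES pH 7.5, 3 mM MgCl2, 1 mM EGTA, 100 mM NaCl, 0.03% CHAPS, 2 mM DTT. Incubated at ambient temperature, 1 h for PI3Kα, 2 h for PI3Kδ. IC50 from four-parameter fit of % inhibition versus concentration.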

PI3Kβ = target: T2, PI3Kβ (Homo sapiens, UniProt P42338); assay: PI3Kβ activity inhibition (ADP-Glo); format: biochemical
T2 construct: purchased Millipore 14-603-K
Description: (§1) Detecting the inhibition capability of the compound to PI3Kβ and PI3Kγ activities with ADP-Glo (purchased from Promege Company; Catalog No.: v9102/3). […] The reaction system also comprises substrates as PIP2 and ATP. The reaction buffer system comprises 50 mM HEPES, 3 mM MgCl2, 1 mM EGTA, 100 mM NaCl, 0.03% CHAPS and 2 mM DTT. The pH value of the reaction buffer is 7.5. […] Mixing the system evenly for incubation under ambient temperature for 1 h; getting a new 384 well plate and transferring 5 μL reaction liquid from the each well of original 384 well plate to the corresponding wells of the new 384 well plate; adding 5 μL ADP-Glo which has been preheated to ambient temperature into each new reaction well to terminate the reaction; oscillating it slowly in dark place for 40 min's incubation after it is mixed evenly; adding 10 μL testing liquid in each reaction well, oscillating it for 1 min to mix evenly and incubating it for 1 h, then measuring the fluorescence intensity with a microplate reader and analyzing the result data with the software GraphPad Prism.
(§2) Calculating the value of IC50 as per the formula: Y=background data+(top data−background data)/(1+10^((Log IC50−X)*rate of curve))
(§3) Where, Y refers to the inhibition ratio (%) and X refers to the compound concentration.

PI3Kδ = target: T3, PI3Kδ (Homo sapiens, UniProt O00329); assay: PI3Kδ activity inhibition (Kinase-Glo); format: biochemical
T3 construct: purchased Millipore 14-604-K
Description: Detecting the inhibition capability of the compound to PI3Kα and PI3Kδ activities with Kinase-Glo (purchased from Promege Company; Catalog No.: V3771). […] The reaction system also comprises substrates as PIP2 (4, 5-diphosphoinositide, purchased from Life Technologies Company) and ATP (triphosadenine, purchased from Sigma Company). The reaction buffer system comprises 50 mM HEPES (4-hydroxyethylpiperazine ethane sulfonic acid), 3 mM MgCl2, 1 mM EGTA (ethylene glycol bis(2-amino ethylether)quadrol), 100 mM NaCl, 0.03% CHAPS (3-[3-(cholamidopropyl)dimethylamino]-1-propanesulfonic acid), 2 mM DTT (dithiothreitol). The pH value of the reaction buffer is 7.5. […] Mixing the system evenly for incubation under ambient temperature (for 1 h in PI3Kα test and for 2 h in PI3Kδ test). After incubation, adding 10 μL Kinase-Glo which has been preheated to ambient temperature into each reaction well to terminate the reaction; shaking it in dark place for 15 min after it is mixed evenly, then measuring the fluorescence intensity with a microplate reader and analyzing the result data with the software GraphPad Prism.
as §2, §3

PI3Kγ = target: T4, PI3Kγ (Homo sapiens, UniProt P48736); assay: PI3Kγ activity inhibition (ADP-Glo); format: biochemical
T4 construct: purchased Invitrogen PR8641C
Description: as §1, §2, §3

[1] = test system: MV4-11 cells (acute myeloid leukemia); assay: Cell proliferation inhibition, MV4-11 (cck-8); format: cell-based; conditions: Homo sapiens
Summary of the method: (§4)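 Cells seeded at 2000-3000/well; adherent lines dosed after attachment, then 96 h incubation with compound. Viability read by MTT for solid-tumour lines (HCT116, A2780s) and CCK-8 for MV4-11; IC50 from four-parameter logistic fit of inhibition ratio versus concentration.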

[2] = test system: hct116 cells (colon cancer); assay: Cell proliferation inhibition, hct116 (MTT); format: cell-based; conditions: Homo sapiens, HCT-116
Summary of the method: as §4

[3] = test system: A2780s cells (ovarian cancer); assay: Cell proliferation inhibition, A2780s (MTT); format: cell-based; conditions: Homo sapiens
Summary of the method: as §4

[4] = test system: acetylated Ac-α-tubulin in A2780s cells; assay: Induction of α-tubulin acetylation in A2780s cells (cytoblot); format: cell-based; conditions: Homo sapiens, 6 h treatment, read-out: Ac-Tub EC50
Description: (§5) Specific operation: After the treatment, washing each well once with 50-100 μl of cold TBS buffer [with the composition as 20 mM Tris (trismetyl aminomethane), pH7.5] and fixing it with 100 μL of 4% pre-cooled paraformaldehyde at 4° C. for 1 h; after paraformaldehyde is washed off, adding 50 μL of pre-cooled methyl alcohol in each well and evenly spreading at 4° C. for 5 min; after methyl alcohol is washed off, washing it once with the TBS buffer containing 3% skim milk powder and adding 50 μL of antibody fluid, oscillating it slightly at 4° C. and incubating overnight. For determination of Ac—H3, the antibody fluid is prepared by diluting Ac—H3 antibody and horseradish peroxide coupled secondary antibody to a same system with the TBS buffer containing 3% skim milk powder (Ac—H3 antibody is purchased from Santa Cruz Company and diluted at a ratio of 1:100; horseradish peroxide coupled secondary antibody is purchased from Jackson Company and diluted at a ratio of 1:2000); for determination of acetylated Ac-α-tubulin, the antibody fluid is prepared by diluting Ac-α-tubulin antibody and horseradish peroxide coupled secondary antibody to a same system with the TBS buffer containing 3% skim milk powder (Ac-α-tubulin antibody is purchased from Santa Cruz Company and diluted at a ratio of 1:100; horseradish peroxide coupled secondary antibody is purchased from Jackson Company and diluted at a ratio of 1:2000).
(§6) Calculating the value of IC50 as per the formula: Y=background data+(top data−background data)/(1+10^((Log EC50−X)*rate of curve)) Where, Y refers to the activating rate (%) and X refers to the compound concentration.

[5] = test system: acetylated histone H3 (Ac-H3) in A2780s cells; assay: Induction of histone H3 acetylation in A2780s cells (cytoblot); format: cell-based; conditions: Homo sapiens, 6 h treatment
Description: as §5, §6

[6] = test system: MV4-11 subcutaneous tumor; conditions: 10 mg/kg i.v., once per two days, 22 days
From the text: During drug administration, measuring the weight and gross tumor volume of the mice per 2 days and keeping a record. The calculation formula is as V=π/6×A^2×B, where, where, V=gross tumor volume (mm^3), A=tumor width (mm) and B=tumor length (mm). Observing and keeping a record for the survival condition of the tested animals. After drug discontinuance, killing the mice through cervical dislocation and peeling off their tumors as per the operation specification of animal experiment. Evaluating the inhibition capability of the compounds to tumor activities by calculating the tumor inhibitory rate with the formula as: tumor inhibitory rate=(1−tumor weight of treatment group/tumor weight of control group)×100%. Analyzing and comparing the difference between each treatment group and control group with the method of t-test. The grading of significance level of difference is: ***, P<0.001; **, P<0.01; *, P<0.05; no statistical significance (ns), P>0.05.

[7] = test system: U266 cells (multiple myeloma); assay: Proliferation inhibition, U266 (cck-8); format: cell-based; conditions: Homo sapiens, U-266; 96 h incubation
From the text: (§7) Calculating the value of IC50 as per the formula: Y=background data+(top data−background data)/(1+10^((Log IC50−X)*rate of curve)). Where, Y refers to the inhibition ratio (%) and X refers to the compound concentration.

[8] = test system: RPMI-8226 cells (multiple myeloma); assay: Proliferation inhibition, RPMI-8226 (cck-8); format: cell-based; conditions: Homo sapiens, 96 h incubation
From the text: as §7

[9] = test system: MM1S cells (multiple myeloma); assay: Proliferation inhibition, MM1S (cck-8); format: cell-based; conditions: Homo sapiens, MM1.S; 96 h incubation
From the text: as §7

[10] = test system: OCI-LY1 cells (B-cell lymphoma); assay: Proliferation inhibition, OCI-LY1 (cck-8); format: cell-based; conditions: Homo sapiens, 96 h incubation
From the text: as §7

[11] = test system: HBL-1 cells (B-cell lymphoma); assay: Proliferation inhibition, HBL-1 (cck-8); format: cell-based; conditions: Homo sapiens, HBL1; 96 h incubation
From the text: as §7

[12] = test system: Ramos cells (B-cell lymphoma); assay: Proliferation inhibition, Ramos (cck-8); format: cell-based; conditions: Homo sapiens, 96 h incubation
From the text: as §7

[13] = test system: SUDHL-4 cells (B-cell lymphoma); assay: Proliferation inhibition, SUDHL-4 (cck-8); format: cell-based; conditions: Homo sapiens, SU-DHL-4; 96 h incubation
From the text: as §7

HDAC1 = target: T5, HDAC1 (Homo sapiens, UniProt Q13547); assay: In vitro HDAC1 enzymatic activity inhibition (Lys-Ac-AMC substrate); format: biochemical; conditions: Table 1, graded; read-out: HDAC1 IC50
T5 construct: purchased BPS Bioscience
Summary of the method: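 Fluorogenic Lys-Ac-AMC deacetylation with trypsin development in modified Tris buffer pH 7.0; compound preincubated with enzyme 15 min at ambient temperature before substrate addition. Final HDAC1 6 nM, trypsin 0.05 μM, Ac-peptide 8 μM. IC50 from four-parameter fit of % inhibition versus concentration.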

mTOR = target: T6, mTOR (Homo sapiens, UniProt P42345); assay: mTOR activity inhibition (ULight-4E-BP1 peptide); format: biochemical; conditions: Table 1, graded
T6 construct: purchased Millipore 14-770
Description: mTOR protein is purchased from Millipore Company (Catalog No.: 14-770). The reaction buffer system comprises 50 mM HEPES, 10 mM MgCl2, 1 mM EGTA, 3 mM […], 0.01% Tween-20 (purchased from Chengdu Kelong Chemical Regent Factory) and 2 mM DTT. The pH value of the reaction buffer is 7.5. Preparing 10 μL reaction system in corresponding wells of the 384 well plate, which contains the compositions as: the compound with designed concentration (or blank control), mTOR protein (with the concentration of 2.5 nM), ULight-4E-BP1 (containing the 37th and the 46th threonine residues, Thr37/46) peptide (purchased from PE Company, Catalog No.: TRF0128-M) and ATP substrates (ULight-4E-BP1 peptide, with the concentration of 50 nM and ATP, with the concentration of […]). Mixing it evenly for incubation under ambient temperature for 1 h; adding 10 μL testing liquid containing EDTA (ethylenediaminetetraacetic acid) and Eu-anti-phosphorylation-4E-BP1 (Thr37/46) antibody (purchased from PE Company, Catalog No.: TRF0216-M) into the reaction wells (after the testing liquid is added, the concentration of EDTA is 8 mM and the concentration of Eu-phosphorylation-4E-BP1 antibody is 2 nM); mixing it evenly and incubating it for 1 h under ambient temperature, then measuring the fluorescence intensity with a microplate reader and analyzing the result data with the software GraphPad Prism.
as §2, §3

[14] = Table 1, graded, read-out: PI3Kα IC50
[15] = 96 h incubation, read-out: Proliferation IC50, Acute myeloid leukemia MV4-11
[16] = 96 h incubation, read-out: Proliferation IC50, Colon cancer hct116
[17] = 96 h incubation, read-out: Proliferation IC50, Ovarian cancer A2780s

T3 sequence (O00329 whole entry): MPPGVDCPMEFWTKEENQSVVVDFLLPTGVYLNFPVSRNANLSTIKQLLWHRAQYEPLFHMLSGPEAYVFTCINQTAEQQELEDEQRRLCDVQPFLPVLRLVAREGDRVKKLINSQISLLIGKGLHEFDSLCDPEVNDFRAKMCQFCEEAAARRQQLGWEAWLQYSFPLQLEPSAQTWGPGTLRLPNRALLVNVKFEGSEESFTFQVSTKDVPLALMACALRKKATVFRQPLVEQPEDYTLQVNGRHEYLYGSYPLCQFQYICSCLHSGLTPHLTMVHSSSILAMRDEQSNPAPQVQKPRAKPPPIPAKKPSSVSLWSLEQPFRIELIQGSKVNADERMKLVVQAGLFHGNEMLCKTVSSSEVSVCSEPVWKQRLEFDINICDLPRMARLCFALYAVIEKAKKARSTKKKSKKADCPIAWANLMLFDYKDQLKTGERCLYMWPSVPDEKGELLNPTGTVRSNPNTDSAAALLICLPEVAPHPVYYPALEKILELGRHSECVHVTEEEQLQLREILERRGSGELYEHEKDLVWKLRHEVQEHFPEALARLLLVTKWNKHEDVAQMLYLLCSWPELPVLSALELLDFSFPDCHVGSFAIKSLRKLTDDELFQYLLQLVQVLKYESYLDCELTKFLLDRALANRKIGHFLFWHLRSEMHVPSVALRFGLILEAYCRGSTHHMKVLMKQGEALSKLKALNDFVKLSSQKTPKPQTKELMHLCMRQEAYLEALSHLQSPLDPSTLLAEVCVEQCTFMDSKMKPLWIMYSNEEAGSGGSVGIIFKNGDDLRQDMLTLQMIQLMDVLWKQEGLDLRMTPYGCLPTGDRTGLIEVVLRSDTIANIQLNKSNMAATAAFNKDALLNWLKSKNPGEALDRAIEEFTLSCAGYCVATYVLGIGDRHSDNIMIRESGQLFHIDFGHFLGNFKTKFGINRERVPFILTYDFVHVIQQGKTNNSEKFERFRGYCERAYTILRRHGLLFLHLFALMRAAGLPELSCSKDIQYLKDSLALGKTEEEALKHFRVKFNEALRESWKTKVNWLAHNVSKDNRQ
T3 sequence (P27986 whole entry partner): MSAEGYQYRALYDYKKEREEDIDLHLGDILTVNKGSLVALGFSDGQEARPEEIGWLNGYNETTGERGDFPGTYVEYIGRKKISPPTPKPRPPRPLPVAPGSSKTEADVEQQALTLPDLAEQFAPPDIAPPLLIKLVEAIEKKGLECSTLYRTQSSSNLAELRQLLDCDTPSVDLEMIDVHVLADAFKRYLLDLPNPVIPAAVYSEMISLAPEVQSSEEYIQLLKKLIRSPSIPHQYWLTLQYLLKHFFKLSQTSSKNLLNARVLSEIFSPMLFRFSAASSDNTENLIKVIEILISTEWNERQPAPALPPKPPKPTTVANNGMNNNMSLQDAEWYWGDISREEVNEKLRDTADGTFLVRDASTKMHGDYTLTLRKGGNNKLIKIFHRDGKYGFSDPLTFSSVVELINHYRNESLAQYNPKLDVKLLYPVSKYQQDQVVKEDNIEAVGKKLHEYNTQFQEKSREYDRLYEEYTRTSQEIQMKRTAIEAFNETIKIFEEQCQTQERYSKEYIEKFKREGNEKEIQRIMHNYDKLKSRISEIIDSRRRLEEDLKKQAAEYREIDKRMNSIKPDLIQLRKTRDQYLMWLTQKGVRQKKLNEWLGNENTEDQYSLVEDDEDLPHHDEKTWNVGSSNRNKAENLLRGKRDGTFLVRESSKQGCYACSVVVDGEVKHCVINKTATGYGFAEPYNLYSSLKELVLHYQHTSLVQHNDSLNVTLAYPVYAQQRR
T1 sequence (P42336 whole entry, species assumed): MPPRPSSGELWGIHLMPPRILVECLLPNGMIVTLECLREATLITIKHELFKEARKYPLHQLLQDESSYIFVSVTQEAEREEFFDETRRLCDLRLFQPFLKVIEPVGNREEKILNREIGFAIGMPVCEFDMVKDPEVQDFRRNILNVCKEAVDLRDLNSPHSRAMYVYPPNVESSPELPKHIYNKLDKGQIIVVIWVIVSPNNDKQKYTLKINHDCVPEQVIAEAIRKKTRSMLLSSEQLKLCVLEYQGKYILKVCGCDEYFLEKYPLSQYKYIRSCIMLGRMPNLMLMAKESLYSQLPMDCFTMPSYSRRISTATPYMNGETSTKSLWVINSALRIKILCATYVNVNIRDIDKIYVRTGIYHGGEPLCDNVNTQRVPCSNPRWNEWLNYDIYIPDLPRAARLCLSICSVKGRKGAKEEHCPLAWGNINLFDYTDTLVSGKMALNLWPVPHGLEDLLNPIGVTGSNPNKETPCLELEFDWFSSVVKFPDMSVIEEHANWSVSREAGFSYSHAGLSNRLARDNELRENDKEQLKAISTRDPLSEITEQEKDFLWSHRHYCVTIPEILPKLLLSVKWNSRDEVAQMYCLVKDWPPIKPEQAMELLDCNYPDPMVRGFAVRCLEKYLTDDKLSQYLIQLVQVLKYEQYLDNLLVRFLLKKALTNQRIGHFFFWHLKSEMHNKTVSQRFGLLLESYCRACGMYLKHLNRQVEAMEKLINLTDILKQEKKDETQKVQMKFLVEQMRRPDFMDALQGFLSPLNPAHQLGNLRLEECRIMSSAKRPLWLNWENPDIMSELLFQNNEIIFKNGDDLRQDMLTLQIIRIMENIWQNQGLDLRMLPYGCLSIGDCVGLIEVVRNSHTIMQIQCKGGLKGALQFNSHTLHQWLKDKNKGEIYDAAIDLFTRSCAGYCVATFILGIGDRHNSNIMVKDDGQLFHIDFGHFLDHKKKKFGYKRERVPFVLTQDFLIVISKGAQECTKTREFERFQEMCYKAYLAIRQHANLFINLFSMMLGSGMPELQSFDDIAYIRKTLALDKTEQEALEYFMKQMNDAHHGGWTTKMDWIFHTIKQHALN
T1 sequence (P27986 whole entry partner, species assumed): as the sequence (P27986 whole entry partner) above
T2 sequence (P42338 whole entry, species assumed): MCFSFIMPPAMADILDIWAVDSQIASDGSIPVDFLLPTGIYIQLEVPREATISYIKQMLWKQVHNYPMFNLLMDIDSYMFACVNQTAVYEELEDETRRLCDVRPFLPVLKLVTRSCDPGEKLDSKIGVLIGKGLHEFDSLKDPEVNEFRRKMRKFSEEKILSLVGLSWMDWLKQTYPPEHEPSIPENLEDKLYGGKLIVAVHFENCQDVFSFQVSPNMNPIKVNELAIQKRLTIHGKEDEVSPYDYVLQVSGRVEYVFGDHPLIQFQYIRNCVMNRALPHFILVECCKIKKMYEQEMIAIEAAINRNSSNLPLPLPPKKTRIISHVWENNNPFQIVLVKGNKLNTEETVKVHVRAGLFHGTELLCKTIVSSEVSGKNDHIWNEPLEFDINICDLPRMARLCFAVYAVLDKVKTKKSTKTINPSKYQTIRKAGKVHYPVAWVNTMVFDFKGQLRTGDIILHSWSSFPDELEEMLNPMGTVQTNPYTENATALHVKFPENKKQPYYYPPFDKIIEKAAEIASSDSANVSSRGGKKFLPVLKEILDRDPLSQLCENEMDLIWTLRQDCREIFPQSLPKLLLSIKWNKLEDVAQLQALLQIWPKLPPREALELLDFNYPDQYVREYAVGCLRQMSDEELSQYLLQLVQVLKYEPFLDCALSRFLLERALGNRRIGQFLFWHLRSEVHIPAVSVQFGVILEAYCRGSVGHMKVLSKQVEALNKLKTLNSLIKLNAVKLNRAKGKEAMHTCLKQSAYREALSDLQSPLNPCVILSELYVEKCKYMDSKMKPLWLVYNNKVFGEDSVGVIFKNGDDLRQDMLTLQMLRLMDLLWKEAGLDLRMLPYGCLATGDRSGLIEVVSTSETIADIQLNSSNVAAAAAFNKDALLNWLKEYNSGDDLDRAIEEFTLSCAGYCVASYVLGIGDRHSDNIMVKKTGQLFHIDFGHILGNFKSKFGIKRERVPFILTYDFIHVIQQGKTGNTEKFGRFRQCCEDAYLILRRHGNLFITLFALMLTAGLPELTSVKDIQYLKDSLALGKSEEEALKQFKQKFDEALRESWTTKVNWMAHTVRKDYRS
T2 sequence (P27986 whole entry partner, species assumed): as the sequence (P27986 whole entry partner) above
T4 sequence (P48736 whole entry): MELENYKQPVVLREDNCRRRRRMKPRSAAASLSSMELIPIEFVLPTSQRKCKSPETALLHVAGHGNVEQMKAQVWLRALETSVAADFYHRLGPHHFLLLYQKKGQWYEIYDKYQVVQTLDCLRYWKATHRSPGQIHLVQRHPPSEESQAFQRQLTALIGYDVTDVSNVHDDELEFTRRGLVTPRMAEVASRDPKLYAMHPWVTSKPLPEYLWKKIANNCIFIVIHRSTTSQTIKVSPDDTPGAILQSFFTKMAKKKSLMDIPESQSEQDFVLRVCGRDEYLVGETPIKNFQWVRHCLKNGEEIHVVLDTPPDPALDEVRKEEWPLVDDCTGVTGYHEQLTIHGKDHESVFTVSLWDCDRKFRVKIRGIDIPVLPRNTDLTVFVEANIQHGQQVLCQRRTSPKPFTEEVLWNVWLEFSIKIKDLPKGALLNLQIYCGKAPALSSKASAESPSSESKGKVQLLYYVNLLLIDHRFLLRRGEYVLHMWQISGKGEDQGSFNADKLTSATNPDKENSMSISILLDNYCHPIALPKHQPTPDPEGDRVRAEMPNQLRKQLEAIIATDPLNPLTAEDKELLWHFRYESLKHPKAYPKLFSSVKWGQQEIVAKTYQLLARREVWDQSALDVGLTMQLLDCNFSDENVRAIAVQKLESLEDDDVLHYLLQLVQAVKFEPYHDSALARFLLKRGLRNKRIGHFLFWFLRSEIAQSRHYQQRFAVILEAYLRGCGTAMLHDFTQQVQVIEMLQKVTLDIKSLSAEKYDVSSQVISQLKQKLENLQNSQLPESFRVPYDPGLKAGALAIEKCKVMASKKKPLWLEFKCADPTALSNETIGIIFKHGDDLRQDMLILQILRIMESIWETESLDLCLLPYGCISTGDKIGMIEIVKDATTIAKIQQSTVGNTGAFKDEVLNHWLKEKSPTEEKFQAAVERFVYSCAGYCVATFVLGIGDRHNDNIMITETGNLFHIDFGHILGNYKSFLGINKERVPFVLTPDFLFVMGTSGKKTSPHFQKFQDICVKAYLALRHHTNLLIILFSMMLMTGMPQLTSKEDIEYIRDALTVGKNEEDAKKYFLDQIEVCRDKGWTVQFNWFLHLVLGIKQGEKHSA

SMILES	IC50 (PI3Kα; [14]) [nM]	IC50 [1, 15] [nM]	IC50 [2, 16] [nM]	IC50 [3, 17] [nM]	IC50 (HDAC1) [nM]	IC50 (PI3Kβ; Table 1, graded) [µM]	IC50 (PI3Kδ; Table 1, graded) [µM]	IC50 (PI3Kγ; Table 1, graded) [µM]	IC50 (mTOR) [nM]	also measured
CN(Cc1nc2c(N3CCOCC3)nc(-c3ccncc3)nc2n1C)c1ncc(C(=O)NO)cn1 [CLJ-8, 2-(((2-(4-pyridyl)-9-methyl-6-morpholine-9H-purine-8-yl))methyl(methyl)amino)-N-hydroxyl pyrimidine-5-formamide]	1000 to 10000	0.1 to 10	10 to 100	0.1 to 10						IC50 (PI3Kα; Table 4, graded, read-out: PI3Kα IC50): 1000 to 10000 nM; IC50 (PI3Kβ; Table 4, graded): > 10 µM; IC50 (PI3Kδ; Table 4, graded): > 10 µM; IC50 (PI3Kγ; Table 4, graded): > 10 µM; EC50 [4]: 100 to 200 nM; EC50 [5]: 100 to 200 nM; Final survival condition (survived individuals/total individuals) [6]: 5/6; IC50 [7]: 1 to 10 nM; IC50 [8]: 1 to 10 nM; IC50 [9]: 0.1 to 1 nM; IC50 [10]: 1 to 10 nM; IC50 [11]: 1 to 10 nM; IC50 [12]: 0.1 to 1 nM; IC50 [13]: 1 to 10 nM
Cc1ncc(-c2nc(N3CCOCC3)c3nc(CN(C)c4ncc(C(=O)NO)cn4)n(C)c3n2)cn1 [CLJ-13]	< 100	0.1 to 10	0.1 to 10	0.1 to 10	< 100	0.1 to 1	0.1 to 1	0.1 to 1	100 to 1000	IC50 (PI3Kα; read-out: inhibition value IC50 to the activity of PI3Kα): < 100 nM; IC50 ([1]; read-out: IC50 to proliferation of MV4-11 cells): 0.1 to 10 nM; IC50 ([2]; read-out: IC50 to proliferation of hct116 cells): 0.1 to 10 nM; IC50 ([3]; read-out: IC50 to proliferation of A2780s cells): 0.1 to 10 nM
CN(Cc1nc2c(N3CCOCC3)nc(-c3cnc4ccccc4c3)nc2n1C)c1ncc(C(=O)NO)cn1 [CLJ-14, 2-(((2-(quinoline-3-yl)-9-methyl-6-morpholine-9H-purine-8-yl))methyl(methyl)amino)-N-hydroxyl pyrimidine-5-formamide]	> 10000	0.1 to 10	10 to 100	0.1 to 10	< 100	> 10	> 10	> 10	> 10000	
